Experimental data reported in patent publication US7427616B2, “Condensed pyridines and pyrimidines with tie2 (TEK) activity” (AstraZeneca AB, priority 2002, dated 2008).
pIC50: −log10 of the molar value.

Molecular target: T1, Tie2 receptor (Homo sapiens, UniProt Q02763)
T1 construct: one can use natural cell lines or primary cells which are known to express the receptor of choice; endogenous in cells; host or cells: EA.hy926/B3 cells (HUVEC named as alternative)
Experiment: Cellular Tie2 autophosphorylation assay (Test (b))
Type: cell-based
Settings: Ang1 ligand stimulated autophosphorylation of cellular Tie2 receptor, e.g. EA.hy926/B3 cells
From the text: b. Cellular Tie2 Autophosphorylation Assay
This assay is based on measuring the ability of compounds to inhibit autophosphorylation of the Tie2 receptor which normally leads to the production of “activated” receptor that in turn initiates the particular signal transduction pathways associated with the receptor function.
Autophosphorylation can be achieved by a number of means. It is known that expression of recombinant kinase domains in baculoviral systems can lead to the production of phosphorylated and activated receptor. […] In these cases the natural, external cell surface domain of the receptor has been replaced with that of a domain which is known to be readily dimerised via the addition of the appropriate ligand (e.g. TrkA-Tie2/NGF ligand (Marron, M. B., et al., 2000 Journal of Biological Chemistry: 275:39741-39746) or C-fms-Tie-1/CSF-1 ligand (Kontos, C. D., et al., 2002 Molecular and Cellular Biology: 22, 1704-1713). Thus when the chimaeric receptor expressed in a host cell line and the respective ligand is added, this induces autophosphorylation of the chimeric receptor's kinase domain. This approach has the advantage of often allowing a known (and often easily obtained) ligand to be used instead of having to identify and isolate the natural ligand for each receptor of interest. […]

T1 sequence (Q02763 23-1124): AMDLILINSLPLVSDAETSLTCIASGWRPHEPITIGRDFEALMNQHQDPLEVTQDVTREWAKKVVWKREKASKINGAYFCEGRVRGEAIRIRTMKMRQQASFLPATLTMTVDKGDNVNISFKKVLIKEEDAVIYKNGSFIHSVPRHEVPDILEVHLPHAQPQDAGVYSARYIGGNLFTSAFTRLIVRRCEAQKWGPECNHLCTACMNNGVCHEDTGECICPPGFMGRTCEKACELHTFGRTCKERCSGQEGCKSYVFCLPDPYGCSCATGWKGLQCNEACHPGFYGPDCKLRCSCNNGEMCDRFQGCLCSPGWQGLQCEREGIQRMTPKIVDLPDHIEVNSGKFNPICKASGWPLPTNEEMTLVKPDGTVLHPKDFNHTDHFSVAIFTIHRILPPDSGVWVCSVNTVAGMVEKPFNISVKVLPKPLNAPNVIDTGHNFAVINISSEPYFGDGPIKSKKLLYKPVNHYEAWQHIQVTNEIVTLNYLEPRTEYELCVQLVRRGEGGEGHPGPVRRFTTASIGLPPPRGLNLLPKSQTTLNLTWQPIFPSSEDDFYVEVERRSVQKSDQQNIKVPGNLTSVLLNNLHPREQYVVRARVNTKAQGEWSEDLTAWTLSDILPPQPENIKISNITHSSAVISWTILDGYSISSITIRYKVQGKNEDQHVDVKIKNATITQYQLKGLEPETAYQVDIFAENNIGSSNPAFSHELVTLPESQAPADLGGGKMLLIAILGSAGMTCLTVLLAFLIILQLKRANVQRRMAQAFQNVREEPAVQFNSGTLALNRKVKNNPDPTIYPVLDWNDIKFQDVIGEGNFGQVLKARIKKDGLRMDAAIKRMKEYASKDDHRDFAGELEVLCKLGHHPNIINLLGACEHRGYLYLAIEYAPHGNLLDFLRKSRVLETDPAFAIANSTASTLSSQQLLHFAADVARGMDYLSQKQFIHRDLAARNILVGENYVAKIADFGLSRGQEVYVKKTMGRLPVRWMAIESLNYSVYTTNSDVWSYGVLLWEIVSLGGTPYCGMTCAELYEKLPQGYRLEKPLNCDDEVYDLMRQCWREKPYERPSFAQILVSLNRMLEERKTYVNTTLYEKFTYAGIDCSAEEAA

SMILES | pIC50
CSc1ncnc2sc(-c3c(-c4ccccc4)ncn3C)cc12 [Example 7, 6-(1-Methyl-4-phenyl-1H-imidazol-5-yl)-4-(methylthio)thieno[2,3d]pyrimidine] | 5.66
Cn1cnc(-c2ccccc2)c1-c1nc2c(N)ncnc2s1 [Example 2, 2-(1-Methyl-4-phenyl-1H-imidazol-5-yl)[1,3]thiazolo[5,4-d]pyrimidin-7-amine] | 5.57
